Source: publication PMC7980952 (Clinical cancer research : an official journal of the …, 2019)
“Also recorded” adds a separate entry of the source. Like-named read-outs stand apart in the source and are kept apart here.

Assays:
IDO = conditions: ref Siu et al. 2017; cited from earlier work
melanoma = conditions: ref Long et al. 2018, cited from earlier work
IDO1 = test: Plasma Kyn as peripheral biomarker of IDO1 activity; format: in vivo, human
solid tumors = conditions: ref Nayak et al. 2018, cited from earlier work
[1] = Navoximod plasma pharmacokinetics; format: in vivo, human; conditions: for PK profile (linearity, dose proportionality): 50–1000 mg BID oral, with atezolizumab; for Tmax: human, plasma, po, 50–1000 mg BID
[2] = tested on: locally advanced or metastatic solid tumors; test: Tumor response by investigators per RECIST v1.1; format: in vivo, human; conditions: with atezolizumab; for ORR in IDO1 0 patients / ORR in PDL1 0 patients / ORR in PDL1 IHC 1/2/3 patients / ORR in IDO1 IHC 1/2/3 patients / ORR in all patients: expansion
[3] = Phase Ib safety assessments: adverse events; conditions: in combination with atezolizumab
[4] = in vivo
preclinical tumor models = conditions: combination with anti-PD-L1 vs single agents; ref Spahn et al. 2015; cited from earlier work
[5] = Phase 1a, 22 patients with solid tumors

In the case of `C[C@@H](C(=O)Nc1ccc(Cl)cc1)C1CCC(c2ccnc3ccc(F)cc23)CC1` (some centres unmarked) [BMS-986205], the “In vitro potency compared with epacadostat and navoximod” value (IDO) is given as “greater in vitro potency”.
In the case of `NS(=O)(=O)NCCNc1nonc1C(=NO)Nc1ccc(F)c(Br)c1` [epacadostat], the mPFS (melanoma; epacadostat in combination with pembrolizumab) is given as 4.7 mo.
In the case of pembrolizumab, the mPFS (melanoma; pembrolizumab monotherapy) is given as 4.9 mo.
For `O[C@H](C[C@H]1c2c(F)cccc2-c2cncn21)[C@H]1CC[C@H](O)CC1` [Navoximod], the “Mean change in plasma Kyn from the pre-dose baseline” value (IDO1; patients receiving at least 200 mg navoximod) is listed as “decreased at all post-dose timepoints beyond 1 hour”, the “Change in plasma Kyn” value (IDO1; relative to Cycle 1 Day 1 pre-dose levels) is listed as “generally decreased with increasing doses” and the “Clinical activity as a single agent” value (solid tumors; [5]) is listed as “limited clinical activity”. For the same compound, the “Tolerability as a single agent” value (solid tumors; [5]) was “generally well-tolerated”, the “Hepatic adverse events, single agent” value (solid tumors) was “Hepatic adverse events had been reported” and the “PK profile (linearity, dose proportionality)” value [1] was “linear PK profile; also recorded: dose-proportional and linear PK”. The “PK profile (linearity, dose proportionality)” value ([1]; listed as navoximod) was “dose-proportional and linear PK profile”, the Tmax ([1]; Tmax range) was 0.25 to 4 h and the Tmax ([1]; median Tmax) was about 1 h. The “PK in combination with atezolizumab compared with single agent” value ([1]; in vivo) was “consistent with single-agent PK observations”, the “Partial response (PR), best overall response” value ([2]; dose escalation, all patients (n=66)) was 9% and the “ORR in IDO1 0 patients” value ([2]; All Patients, n=19) was 0 (0%) Responders (%). The “ORR in PDL1 0 patients” value ([2]; All Patients, n=27) was 0 (0%) Responders (%), the “ORR in PDL1 IHC 1/2/3 patients” value ([2]; All Patients, n=60) was 9 (15%) Responders (%) and the “ORR in IDO1 IHC 1/2/3 patients” value ([2]; All Patients, n=68) was 9 (13%) Responders (%). For the same compound, the “ORR in all patients” value ([2]; All Patients, n=91) was 10 (11%) Responders (%), the “ORR in IDO1 0 patients” value ([2]; Biopsy A (CIT naïve), n=3) was 0 (0%) Responders (%) and the “ORR in PDL1 0 patients” value ([2]; Biopsy A (CIT naïve), n=5) was 0 (0%) Responders (%). For the same compound, the “ORR in PDL1 IHC 1/2/3 patients” value ([2]; Biopsy A (CIT naïve), n=6) was 0 (0%) Responders (%), the “ORR in IDO1 IHC 1/2/3 patients” value ([2]; Biopsy A (CIT naïve), n=8) was 0 (0%) Responders (%) and the “ORR in all patients” value ([2]; Biopsy A (CIT naïve), n=11) was 0 (0%) Responders (%). The “ORR in IDO1 0 patients” value ([2]; Biopsy B (CIT naïve), n=4) was 0 (0%) Responders (%), the “ORR in PDL1 0 patients” value ([2]; Biopsy B (CIT naïve), n=4) was 0 (0%) Responders (%) and the “ORR in IDO1 IHC 1/2/3 patients” value ([2]; Biopsy B (CIT naïve), n=8) was 1 (12%) Responders (%). For the same compound, the “ORR in PDL1 IHC 1/2/3 patients” value ([2]; Biopsy B (CIT naïve), n=8) was 1 (12%) Responders (%), the “ORR in all patients” value ([2]; Biopsy B (CIT naïve), n=12) was 1 (8%) Responders (%) and the “ORR in IDO1 0 patients” value ([2]; NSCLC (CIT naïve), n=8) was 0 (0%) Responders (%). For the same compound, the “ORR in PDL1 0 patients” value ([2]; NSCLC (CIT naïve), n=11) was 0 (0%) Responders (%), the “ORR in PDL1 IHC 1/2/3 patients” value ([2]; NSCLC (CIT naïve), n=14) was 2 (14%) Responders (%) and the “ORR in IDO1 IHC 1/2/3 patients” value ([2]; NSCLC (CIT naïve), n=17) was 2 (12%) Responders (%). For the same compound, the “ORR in all patients” value ([2]; NSCLC (CIT naïve), n=26) was 2 (8%) Responders (%), the “ORR in IDO1 0 patients” value ([2]; NSCLC (relapsed), n=1) was 0 (0%) Responders (%) and the “ORR in PDL1 0 patients” value ([2]; NSCLC (relapsed), n=4) was 0 (0%) Responders (%). The “ORR in PDL1 IHC 1/2/3 patients” value ([2]; NSCLC (relapsed), n=11) was 0 (0%) Responders (%), the “ORR in IDO1 IHC 1/2/3 patients” value ([2]; NSCLC (relapsed), n=14) was 0 (0%) Responders (%) and the “ORR in all patients” value ([2]; NSCLC (relapsed), n=16) was 0 (0%) Responders (%). The “ORR in IDO1 0 patients” value ([2]; RCC (CIT naïve), n=0) was 0 (0%) Responders (%), the “ORR in PDL1 0 patients” value ([2]; RCC (CIT naïve), n=0) was 0 (0%) Responders (%) and the “ORR in IDO1 IHC 1/2/3 patients” value ([2]; RCC (CIT naïve), n=7) was 3 (43%) Responders (%). For the same compound, the “ORR in PDL1 IHC 1/2/3 patients” value ([2]; RCC (CIT naïve), n=7) was 3 (43%) Responders (%), the “ORR in all patients” value ([2]; RCC (CIT naïve), n=7) was 3 (43%) Responders (%) and the “ORR in IDO1 0 patients” value ([2]; TNBC (CIT naïve), n=3) was 0 (0%) Responders (%). The “ORR in PDL1 0 patients” value ([2]; TNBC (CIT naïve), n=3) was 0 (0%) Responders (%), the “ORR in IDO1 IHC 1/2/3 patients” value ([2]; TNBC (CIT naïve), n=8) was 1 (12%) Responders (%) and the “ORR in PDL1 IHC 1/2/3 patients” value ([2]; TNBC (CIT naïve), n=8) was 1 (12%) Responders (%). For the same compound, the “ORR in all patients” value ([2]; TNBC (CIT naïve), n=11) was 1 (9%) Responders (%), the “ORR in IDO1 0 patients” value ([2]; UBC (CIT naïve), n=0) was 0 (0%) Responders (%) and the “ORR in PDL1 0 patients” value ([2]; UBC (CIT naïve), n=0) was 0 (0%) Responders (%). The “ORR in IDO1 IHC 1/2/3 patients” value ([2]; UBC (CIT naïve), n=6) was 2 (33%) Responders (%), the “ORR in PDL1 IHC 1/2/3 patients” value ([2]; UBC (CIT naïve), n=6) was 2 (33%) Responders (%) and the “ORR in all patients” value ([2]; UBC (CIT naïve), n=8) was 3 (38%) Responders (%). The MTD [3] was “not reached; also recorded: not identified; also recorded: No MTD was defined”, the “Chromaturia, treatment-related AE” value ([4]; human) was 20% and the “Discontinuations due to treatment related AEs” value ([4]; human) was 9%. For the same compound, the “Fatigue, treatment-related AE” value ([4]; human) was 22%, the “Grade ≥ 3 treatment-related AEs” value ([4]; human) was 22% and the “Grade ≥ 3 treatment-related rash” value ([4]; human) was 9%. The “Patients who discontinued treatment due to rash” value ([4]; human) was 4%, the “Pink colored urine (chromaturia)” value ([4]; human) was “up to 20%” and the Rash overall ([4]; human) was “around 20%”. The “Rash, treatment-related AE” value ([4]; human) was 22%, the “Treatment related serious AEs” value ([4]; human) was 10% and the “Relationship between dose and incidence or severity of AEs” value [4] was “no clear relationship”. For the same compound, the “Tolerability of the combination” value [4] was “generally well-tolerated” and the “Activation of intratumoral CD8+ T cells and tumor growth inhibition” value (preclinical tumor models) was “more effectively activates intratumoral CD8+ T cells and inhibits tumor growth compared to either single agent alone”.
